Results from PubChem BioAssay AID256 (DTP/NCI, 2004).
Toxic doses and inconclusive results are not listed.

Tested on: CD2F1 mice, L1210 leukemia ip, survival T/C
Experiment: NCI In Vivo Anticancer Drug Screen. Data for tumor model L1210 Leukemia (intraperitoneal) in CD2F1 (CDF1) mice
Details: higher = longer survival
Procedure, shortened: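 Implant tumor; dose compound or vehicle; measure endpoint in both groups; report treated divided by control.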

[1] = endpoint: mean survival time, dose: 100.0 mg/kg/injection, schedule: Q04DX003 (ip), vehicle: saline with Tween-80
[2] = endpoint: mean survival time, dose: 200.0 mg/kg/injection, schedule: Q04DX003 (ip), vehicle: saline with Tween-80
[3] = endpoint: mean survival time, dose: 400.0 mg/kg/injection, schedule: Q04DX003 (ip), vehicle: saline with Tween-80
[4] = endpoint: mean survival time, dose: 25.0 mg/kg/injection, schedule: Q01DX009 (ip), vehicle: saline
[5] = endpoint: mean survival time, dose: 50.0 mg/kg/injection, schedule: Q01DX009 (ip), vehicle: saline
[6] = endpoint: mean survival time, dose: 12.5 mg/kg/injection, schedule: Q01DX009 (ip), vehicle: saline with Tween-80
[7] = endpoint: mean survival time, dose: 100.0 mg/kg/injection, schedule: Q01DX001 (ip), vehicle: saline with Tween-80

N#CCc1ccc(N=Nc2c(N)nc(N)nc2N)cc1
T/C [1]: 92 % of control | T/C [2]: 104 % of control | T/C [3]: 101 % of control

Nc1c(-c2ncc[nH]2)ncn1C1OC(CO)C(O)C1O (stereo not drawn)
T/C (endpoint: mean survival time, dose: 100.0 mg/kg/injection, schedule: Q04DX002 (ip), vehicle: saline with Tween-80): 109 % of control | T/C (endpoint: mean survival time, dose: 200.0 mg/kg/injection, schedule: Q04DX002 (ip), vehicle: saline with Tween-80): 97 % of control | T/C (endpoint: mean survival time, dose: 400.0 mg/kg/injection, schedule: Q04DX002 (ip), vehicle: saline with Tween-80): 102 % of control

C=C(Br)CN(CC)C(C)=O
T/C (endpoint: mean survival time, dose: 12.5 mg/kg/injection, schedule: Q01DX009 (ip), vehicle: saline): 102 % of control | T/C (endpoint: mean survival time, dose: 12.5 mg/kg/injection, schedule: Q04DX003 (ip), vehicle: saline): 96 % of control | T/C [4]: 97 % of control | T/C (endpoint: mean survival time, dose: 25.0 mg/kg/injection, schedule: Q04DX003 (ip), vehicle: saline): 95 % of control | T/C [5]: 114 % of control | T/C (endpoint: mean survival time, dose: 50.0 mg/kg/injection, schedule: Q04DX003 (ip), vehicle: saline): 104 % of control

CC1(C)CC(=O)C2=C(C1)OC1(O)CC(C)(C)CC(=O)C1C2c1ccccc1[N+](=O)[O-] (stereo not drawn)
T/C (endpoint: mean survival time, dose: 3.13 mg/kg/injection, schedule: Q01DX001 (ip), vehicle: saline with Tween-80): 103 % of control | T/C (endpoint: mean survival time, dose: 3.13 mg/kg/injection, schedule: Q01DX009 (ip), vehicle: saline with Tween-80): 100 % of control | T/C (endpoint: mean survival time, dose: 6.25 mg/kg/injection, schedule: Q01DX001 (ip), vehicle: saline with Tween-80): 90 % of control | T/C (endpoint: mean survival time, dose: 6.25 mg/kg/injection, schedule: Q01DX009 (ip), vehicle: saline with Tween-80): 107 % of control | T/C (endpoint: mean survival time, dose: 12.5 mg/kg/injection, schedule: Q01DX001 (ip), vehicle: saline with Tween-80): 97 % of control | T/C [6]: 97 % of control | T/C [7]: 87 % of control

O=C(CCCCl)CC(O)(C(F)(F)Cl)C(F)(F)Cl
T/C [4]: 94 % of control | T/C [5]: 100 % of control | T/C (endpoint: mean survival time, dose: 100.0 mg/kg/injection, schedule: Q01DX009 (ip), vehicle: saline): 94 % of control

COC(=O)CCC#N
T/C (endpoint: mean survival time, dose: 100.0 mg/kg/injection, schedule: Q04DX003 (ip), vehicle: saline): 96 % of control | T/C (endpoint: mean survival time, dose: 200.0 mg/kg/injection, schedule: Q04DX003 (ip), vehicle: saline): 91 % of control | T/C (endpoint: mean survival time, dose: 400.0 mg/kg/injection, schedule: Q04DX003 (ip), vehicle: saline): 97 % of control

C=C(C)C12OC3(c4ccccc4)OC1C1C4OC4(CO)C(O)C4(O)C(=O)C(C)=CC4C1(O3)C(C)C2OC(=O)c1ccccc1 (stereo not drawn)
T/C (endpoint: mean survival time, dose: 0.1 mg/kg/injection, schedule: Q01DX009 (ip), vehicle: saline): 96 % of control | T/C (endpoint: mean survival time, dose: 0.2 mg/kg/injection, schedule: Q01DX009 (ip), vehicle: saline): 98 % of control | T/C (endpoint: mean survival time, dose: 0.4 mg/kg/injection, schedule: Q01DX009 (ip), vehicle: saline): 98 % of control | T/C (endpoint: mean survival time, dose: 0.8 mg/kg/injection, schedule: Q01DX009 (ip), vehicle: saline): 100 % of control

CC1(C)OC2C(COC(=O)CI)OC(n3ccc(=O)[nH]c3=O)C2O1 (stereo not drawn)
T/C (endpoint: median survival time, dose: 25.0 mg/kg/injection, schedule: Q01DX005 (ip), vehicle: Klucel (hydroxypropylcellulose) (HPC)): 102 % of control | T/C (endpoint: median survival time, dose: 50.0 mg/kg/injection, schedule: Q01DX005 (ip), vehicle: Klucel (hydroxypropylcellulose) (HPC)): 98 % of control

C1CCC(CCC2CCCC[N-]2)[N-]C1.[I][Co][I] (stereo not drawn)
T/C (endpoint: mean survival time, dose: 25.0 mg/kg/injection, schedule: Q01DX001 (ip), vehicle: saline with Tween-80): 95 % of control | T/C (endpoint: mean survival time, dose: 50.0 mg/kg/injection, schedule: Q01DX001 (ip), vehicle: saline with Tween-80): 86 % of control | T/C [7]: 123 % of control | T/C (endpoint: mean survival time, dose: 100.0 mg/kg/injection, schedule: Q01DX001 (ip), vehicle: saline): 103 % of control

O=c1[nH]cnc2c1nnn2C1OC(CO)C(O)C1O (stereo not drawn)
T/C (endpoint: median survival time, dose: 50.0 mg/kg/injection, schedule: Q01DX005 (ip), vehicle: saline): 121 % of control | T/C (endpoint: median survival time, dose: 200.0 mg/kg/injection, schedule: Q01DX005 (ip), vehicle: saline): 156 % of control | T/C (endpoint: median survival time, dose: 400.0 mg/kg/injection, schedule: Q01DX005 (ip), vehicle: saline): 160 % of control | T/C (endpoint: median survival time, dose: 400.0 mg/kg/injection, schedule: Q01DX005 (ip), vehicle: suspension in saline): 90 % of control | T/C (endpoint: median survival time, dose: 800.0 mg/kg/injection, schedule: Q01DX005 (ip), vehicle: saline): 111 % of control

COc1cc(CCl)ccc1OCc1ccccc1
T/C (endpoint: mean survival time, dose: 100.0 mg/kg/injection, schedule: Q04DX003 (ip), vehicle: other): 98 % of control | T/C (endpoint: mean survival time, dose: 200.0 mg/kg/injection, schedule: Q04DX003 (ip), vehicle: other): 98 % of control | T/C (endpoint: mean survival time, dose: 400.0 mg/kg/injection, schedule: Q04DX003 (ip), vehicle: other): 109 % of control

O=C(C1=CN(CCCO)CCC1)c1cc2ccccc2n1S(=O)(=O)c1ccccc1
T/C [1]: 104 % of control | T/C [2]: 90 % of control | T/C [3]: 97 % of control

CC(C)(C)OC(=O)NC(=O)CCC(N)C(=O)O (stereo not drawn)
T/C [1]: 94 % of control | T/C [2]: 91 % of control | T/C [3]: 92 % of control

O=C(N/N=C/c1ccccc1)c1ccc(Cl)cc1Cl
T/C (endpoint: mean survival time, dose: 100.0 mg/kg/injection, schedule: Q01DX001 (ip), vehicle: Klucel (hydroxypropylcellulose) (HPC)): 100 % of control | T/C (endpoint: mean survival time, dose: 100.0 mg/kg/injection, schedule: Q01DX009 (ip), vehicle: Klucel (hydroxypropylcellulose) (HPC)): 100 % of control | T/C (endpoint: mean survival time, dose: 200.0 mg/kg/injection, schedule: Q01DX001 (ip), vehicle: Klucel (hydroxypropylcellulose) (HPC)): 97 % of control | T/C (endpoint: mean survival time, dose: 200.0 mg/kg/injection, schedule: Q01DX009 (ip), vehicle: Klucel (hydroxypropylcellulose) (HPC)): 94 % of control | T/C (endpoint: mean survival time, dose: 400.0 mg/kg/injection, schedule: Q01DX001 (ip), vehicle: Klucel (hydroxypropylcellulose) (HPC)): 101 % of control | T/C (endpoint: mean survival time, dose: 400.0 mg/kg/injection, schedule: Q01DX009 (ip), vehicle: Klucel (hydroxypropylcellulose) (HPC)): 91 % of control

Cc1ccc(CNc2ccc(I)cc2)cc1
T/C [1]: 93 % of control | T/C [2]: 88 % of control | T/C [3]: 86 % of control

[O]=[Sb]([c]1ccccc1)([c]1ccccc1)[c]1ccccc1
T/C [1]: 101 % of control

O=C(Nc1ccccc1I)c1ccccc1
T/C [1]: 110 % of control | T/C [2]: 98 % of control | T/C [3]: 98 % of control

O=C1NC(=O)C2CC=CCC12 (stereo not drawn)
T/C (endpoint: mean survival time, dose: 100.0 mg/kg/injection, schedule: Q01DX009 (ip), vehicle: saline with Tween-80): 96 % of control | T/C (endpoint: mean survival time, dose: 200.0 mg/kg/injection, schedule: Q01DX009 (ip), vehicle: saline with Tween-80): 102 % of control | T/C (endpoint: mean survival time, dose: 400.0 mg/kg/injection, schedule: Q01DX009 (ip), vehicle: saline with Tween-80): 102 % of control

Cc1cc(N(C)C)c(C)cc1N=Nc1cc[n+]([O-])cc1
T/C (endpoint: mean survival time, dose: 56.3 mg/kg/injection, schedule: Q04DX002 (ip), vehicle: saline with Tween-80): 96 % of control | T/C (endpoint: mean survival time, dose: 113.0 mg/kg/injection, schedule: Q04DX002 (ip), vehicle: saline with Tween-80): 92 % of control

CC(=O)N(C1=CC(=O)c2ccccc2C1=O)c1ccc(C)cc1
T/C (endpoint: mean survival time, dose: 75.0 mg/kg/injection, schedule: Q01DX001 (ip), vehicle: saline): 100 % of control | T/C (endpoint: mean survival time, dose: 150.0 mg/kg/injection, schedule: Q01DX001 (ip), vehicle: saline): 100 % of control

O=C(CCCCCCCCC(=O)N/N=C/c1ccc(Cl)c(Cl)c1)N/N=C/c1ccc(Cl)c(Cl)c1
T/C [7]: 95 % of control | T/C (endpoint: mean survival time, dose: 200.0 mg/kg/injection, schedule: Q01DX001 (ip), vehicle: saline with Tween-80): 95 % of control | T/C (endpoint: mean survival time, dose: 400.0 mg/kg/injection, schedule: Q01DX001 (ip), vehicle: saline with Tween-80): 94 % of control

CC1CCCN(CCSSCCN2CCCC(C)C2)C1 (stereo not drawn)
T/C [6]: 104 % of control | T/C (endpoint: mean survival time, dose: 12.5 mg/kg/injection, schedule: Q04DX003 (ip), vehicle: saline sonified): 97 % of control | T/C (endpoint: mean survival time, dose: 25.0 mg/kg/injection, schedule: Q01DX009 (ip), vehicle: saline with Tween-80): 96 % of control | T/C (endpoint: mean survival time, dose: 25.0 mg/kg/injection, schedule: Q04DX003 (ip), vehicle: saline sonified): 98 % of control | T/C (endpoint: mean survival time, dose: 50.0 mg/kg/injection, schedule: Q01DX009 (ip), vehicle: saline with Tween-80): 95 % of control | T/C (endpoint: mean survival time, dose: 50.0 mg/kg/injection, schedule: Q04DX003 (ip), vehicle: saline sonified): 103 % of control

CCOC(=O)Nc1cc(Cl)c2nnn(C3OC(CO)C(O)C3O)c2n1 (stereo not drawn)
T/C (endpoint: mean survival time, dose: 12.5 mg/kg/injection, schedule: Q01DX005 (ip), vehicle: water): 90 % of control | T/C (endpoint: mean survival time, dose: 25.0 mg/kg/injection, schedule: Q01DX005 (ip), vehicle: water): 94 % of control | T/C (endpoint: mean survival time, dose: 50.0 mg/kg/injection, schedule: Q01DX005 (ip), vehicle: water): 86 % of control | T/C (endpoint: mean survival time, dose: 100.0 mg/kg/injection, schedule: Q01DX005 (ip), vehicle: water): 96 % of control | T/C (endpoint: mean survival time, dose: 200.0 mg/kg/injection, schedule: Q01DX005 (ip), vehicle: water): 90 % of control
